According to patent publication US7858657B2 (Proix Pharmaceutical Corp., priority 2004, dated 2010):
Marks after values point to notes of the source that are not given here.

Columns and labels:
[1] = test system: A-549 lung; test: Antitumor activity of cytotoxic drugs alone or combined with PX-866, A-549 lung (Table 2); format: in vivo
[2] = Toxicity of long term PX-866 administration, scid mice; format: in vivo; conditions: for ALT: 24 hr after last dose, mean of 4 mice ± SE; for gain in body weight as % of the control weight gain: over the 4 weeks of treatment
Description: Toxicity Studies. […] The mice were killed 24 hr after the last dose and changes in body weight, blood lymphocyte, neutrophil, red blood cell, platelet counts, serum glucose, aspartate amino transferase (AST), and amino alanine transferase (ALT) were measured.
Values are the mean of 4 mice per group±SE.

[3] = test system: HT-29 colon; test: Antitumor activity of cytotoxic drugs alone or combined with PX-866, HT-29 colon (Table 2); format: in vivo; conditions: for Alone Growth delay days / Alone TGI % / Alone log cell kill: size 150 mm^3
[4] = test system: mouse bone marrow; test: Bone marrow colony formation from treated mice; format: in vivo; conditions: C57B1/6 mice, PX-866 3 mg/kg po every other day for 15 doses
Description: Bone Marrow Colony Formation. After sacrifice, mouse bone marrow was extracted from each femur and red blood cells lysed with 0.2% hypotonic NaCl followed by the addition of a 1.6% hypertonic NaCl. Approximately 20,000 cells were plated in 1 ml of Methocult™ GF M3434 (Stemcell Technologies Inc, Vancouver, BC, Canada) containing 1% methylcellulose in […], 15% fbs, 1% bovine serum albumin, 10:g/ml recombinant human insulin, 200:g/ml humantransferrin, […] β-mercaptoethanol, 2 mM L-glutamine, 50 ng/ml rm stem cell factor, 10 ng/ml recombinant mouse interleukin-3, 10 ng/ml recombinant human interleukin-6, and 3 units/ml recombinant erythropoietin. Cells were plated in triplicate and grown at 37/C and 5% CO2 in a humid environment for 14 days before scoring. Colonies (>40 cells/colony) or clusters (3-40 cells) were scored and growth of colony-forming unit granulocyte, erythroid, macrophage, megakaryocyte (CFU-GEMM; burst-forming units-erythroid (BFU-E), colony-forming units granulocyte macrophage (CFU-GM), assessed using standard criteria. Qualitative observations were made on background levels of single cells.

[5] = Nonfasting glucose levels after long term PX-866; format: in vivo, mice; conditions: PX-866 9 mg/kg iv every other day for 15 doses; ±S.E., n=4
[6] = Glucose tolerance studies; conditions: mean ± SE of 4 mice
Description: Glucose Tolerance Studies. Female C5781/6 mice were fasted overnight and administered a single dose of D(+) glucose (1 mg/kg) as a 0.1 g/ml solution po. […] Human recombinant insulin was administered at 0.075:g/kg ip (26) at the same time as glucose administration.
Values are the mean±SE of 4 mice per group.

[7] = test system: HT-29 colon cancer; test: Antitumor activity of PX-866 with gefitinib in HT-29 colon cancer; format: in vivo; conditions: PX-866 2 mg/kg orally 4 hours prior to gefitinib 75 mg/kg po (FIG. 13)
[8] = target: T1, p110α/p85α (Bos taurus, UniProt P32871); test: Inhibition of recombinant PtdIns-3-kinase, [32P]-ATP dependent phosphorylation of PtdIns; format: biochemical, bovine; conditions: recombinant enzyme; read-out: IC50, PtdIns-3-kinase p110α/p85α
T1 construct: purchased Upstate (Charlottesville, Va.)
Text: Materials and Methods. Compounds. […] Rabbit purified anti-phosphoSer473-Akt antibody, anti-Akt antibody, antiphospho Tyr1086-EGF-receptor antibody and anti-EGFR antibody were obtained from Cell Signaling Technology (Beverly, Mass.). Human recombinant p110α/p85α, p110β/p85α, p120 (and p110*/p85α PtdIns-3-kinases were obtained from Upstate (Charlottesville, Va.). Metformin hydrochloride was obtained from Spectrum Chemical (Gardena, Calif.), pioglitazone hydrochloride and recombinant human insulin from Sigma Chemical (St. Louis).
Measurement of PtdIns-3-kinase.

[9] = test system: A-549 lung; test: Antitumor activity of wortmannin analogs, A-549 lung tumor (Table 1); format: in vivo
[10] = Pharmacokinetics of PX-866 in mouse plasma; format: in vivo; conditions: intravenous, intraperitoneal and oral administration; mouse plasma (FIG. 2)
[11] = test system: OvCaR-3 ovarian; test: Antitumor activity of cytotoxic drugs alone or combined with PX-866, OvCar-3 ovarian (Table 2); format: in vivo; conditions: for Alone Growth delay days / Alone TGI % / Alone log cell kill: size 110 mm^3
[12] = test system: tumor phospho-Akt (A-549 tumor xenografts); test: Pharmacodynamic studies, tumor phospho-Akt in A-549 xenografts; format: in vivo, scid mice
Text: Pharmacodynamic Studies. […] Tumor Akt activity was expressed as the ratio of phospho-Ser473-Akt to total Akt.

[13] = PX-866 ip 6 mg/kg QD × 5 combined with cisplatin ip 1 mg/kg QD × 5
[14] = size 300 mm^3, PX-866 ip 6 mg/kg QD × 5
[15] = PX-866 1.5 mg/kg po every other day for 14 doses, mean ± SE
[16] = PX-866 3 mg/kg po every other day for 14 doses, mean ± SE
[17] = PX-866 10 mg/kg iv every other day for 14 doses, mean ± SE
[18] = PX-866 iv 10 mg/kg Q2D × 3 combined with cisplatin ip 2.5 mg/kg Q2D × 3
[19] = PX-866 po 2.5 mg/kg Q2D × 3 combined with cisplatin ip 2.5 mg/kg Q2D × 3
[20] = initial tumor vol 60 mm^3, 4 mg/kg/day po Q1D × 9
[21] = initial tumor vol 60 mm^3, 12 mg/kg/day iv Q1D × 9
[22] = initial tumor vol 65 mm^3, 6 mg/kg/day ip Q1D × 9
[23] = initial tumor vol 65 mm^3, 9 mg/kg/day ip Q1D × 9
[24] = PX-866 iv 12 mg/kg Q2D × 5 combined with taxol ip 12 mg/kg Q2D × 5
[25] = PX-866 po 4 mg/kg Q2D × 5 combined with taxol ip 12 mg/kg Q2D × 5

T1 sequence (P32871 whole entry): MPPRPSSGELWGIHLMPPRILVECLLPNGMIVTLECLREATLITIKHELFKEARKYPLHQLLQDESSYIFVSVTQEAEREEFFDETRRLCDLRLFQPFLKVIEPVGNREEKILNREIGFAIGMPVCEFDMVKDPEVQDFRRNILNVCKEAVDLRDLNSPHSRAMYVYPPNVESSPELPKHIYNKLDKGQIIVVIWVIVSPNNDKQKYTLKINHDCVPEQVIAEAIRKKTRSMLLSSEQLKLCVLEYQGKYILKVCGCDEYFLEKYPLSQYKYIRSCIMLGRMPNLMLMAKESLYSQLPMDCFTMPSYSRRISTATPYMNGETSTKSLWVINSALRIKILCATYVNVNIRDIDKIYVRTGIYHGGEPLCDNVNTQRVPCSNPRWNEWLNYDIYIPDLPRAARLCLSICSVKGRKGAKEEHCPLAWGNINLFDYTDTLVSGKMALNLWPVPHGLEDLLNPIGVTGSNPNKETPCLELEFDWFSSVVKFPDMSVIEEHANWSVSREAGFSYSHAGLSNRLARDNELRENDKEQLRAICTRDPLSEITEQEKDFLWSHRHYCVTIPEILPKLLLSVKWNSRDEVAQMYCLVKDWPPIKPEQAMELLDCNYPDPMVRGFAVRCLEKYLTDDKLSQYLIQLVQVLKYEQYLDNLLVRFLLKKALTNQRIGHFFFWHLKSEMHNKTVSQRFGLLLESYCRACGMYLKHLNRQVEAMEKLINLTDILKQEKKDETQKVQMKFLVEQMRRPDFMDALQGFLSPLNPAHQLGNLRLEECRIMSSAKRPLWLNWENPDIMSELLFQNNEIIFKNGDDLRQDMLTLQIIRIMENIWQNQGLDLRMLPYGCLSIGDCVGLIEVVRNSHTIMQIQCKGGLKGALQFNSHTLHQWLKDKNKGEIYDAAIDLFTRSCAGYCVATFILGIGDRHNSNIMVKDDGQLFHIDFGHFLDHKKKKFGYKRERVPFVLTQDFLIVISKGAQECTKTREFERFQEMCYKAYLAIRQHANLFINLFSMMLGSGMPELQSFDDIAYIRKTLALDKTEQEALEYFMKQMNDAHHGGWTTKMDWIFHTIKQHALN
T1 sequence (P23727 2-724 partner): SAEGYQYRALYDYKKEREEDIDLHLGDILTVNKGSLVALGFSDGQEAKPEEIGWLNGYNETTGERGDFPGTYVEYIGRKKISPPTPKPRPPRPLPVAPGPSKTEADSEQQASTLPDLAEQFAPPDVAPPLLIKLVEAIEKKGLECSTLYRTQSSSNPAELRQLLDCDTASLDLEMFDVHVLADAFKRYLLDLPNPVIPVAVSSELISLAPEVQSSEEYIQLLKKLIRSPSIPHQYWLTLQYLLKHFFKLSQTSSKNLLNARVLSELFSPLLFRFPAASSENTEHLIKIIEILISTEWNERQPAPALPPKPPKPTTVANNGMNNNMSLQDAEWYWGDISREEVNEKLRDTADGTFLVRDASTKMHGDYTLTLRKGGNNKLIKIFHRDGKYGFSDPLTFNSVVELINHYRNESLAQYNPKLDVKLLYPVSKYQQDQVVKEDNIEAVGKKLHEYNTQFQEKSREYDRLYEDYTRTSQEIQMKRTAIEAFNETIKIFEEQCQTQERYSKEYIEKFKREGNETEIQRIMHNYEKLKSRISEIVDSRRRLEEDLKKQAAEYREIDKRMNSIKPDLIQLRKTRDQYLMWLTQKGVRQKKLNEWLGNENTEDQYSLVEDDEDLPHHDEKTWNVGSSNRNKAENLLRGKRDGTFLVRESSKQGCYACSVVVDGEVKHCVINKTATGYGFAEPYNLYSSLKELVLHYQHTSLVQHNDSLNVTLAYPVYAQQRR

C=CCN(/C=C1/C(=O)O[C@H](COC)[C@@]2(C)C1=C(O)C(=O)C1=C2[C@H](OC(C)=O)C[C@]2(C)C(=O)CC[C@@H]12)CC=C [PX-866]
Combined Growth delay days [1, 13]: 10 days
Combined TGI % [1, 13]: 58%
Combined log cell kill [1, 13]: 1.0
Alone Growth delay days [1, 14]: 3 days
Alone TGI % [1, 14]: 27%
Alone log cell kill [1, 14]: 0.30
ALT ([2]; PX-866 1.5 mg/kg po every other day for 14 doses): 65.6 ± 27.5 U/l
AST [2, 15]: 140.5 ± 35.2 U/l
Hb [2, 15]: 14.6 ± 0.3 g/dL
Weight change [2, 15]: 3.9 ± 0.6 g
ALT ([2]; PX-866 3 mg/kg po every other day for 14 doses): 47.6 ± 16.8 U/l
AST [2, 16]: 152.0 ± 47.2 U/l
Hb [2, 16]: 14.7 ± 0.4 g/dL
LY [2, 16]: 5.2 ± 3.9 K/μl
MO [2, 16]: 9.2 ± 3.6 K/μl
Plt [2, 16]: 1665 ± 227 K/μl
gain in body weight as % of the control weight gain ([2]; PX-866 3 mg/kg po): 28%
ALT ([2]; PX-866 10 mg/kg iv every other day for 14 doses): 35.5 ± 11.7 U/l
AST [2, 17]: 105.2 ± 19.2 U/l
Hb [2, 17]: 14.4 ± 0.1 g/dL
LY [2, 17]: 1.8 ± 0.5 K/μl
MO [2, 17]: 1.1 ± 0.2 K/μl
Ne [2, 17]: 14.0 ± 2.7 K/μl
Plt [2, 17]: 1390 ± 43 K/μl
WBC [2, 17]: 14.6 ± 4.2 K/μl
glucose [2, 17]: 76.2 ± 3.6 mg/dL
gain in body weight as % of the control weight gain ([2]; PX-866 10 mg/kg iv): 83%
time for changes in body weight, plasma glucose and blood cell counts to return to normal after treatment stopped ([2]; scid mice, long term PX-866): ≤ 9 days
Combined Growth delay days [3, 18]: 6 days
Combined TGI % [3, 18]: 56%
Combined log cell kill [3, 18]: 0.5
Combined Growth delay days [3, 19]: 8 days
Combined TGI % [3, 19]: 63%
Combined log cell kill [3, 19]: 0.7
Alone Growth delay days ([3]; PX-866 iv 10 mg/kg Q2D × 3): 0 days
Alone TGI % ([3]; PX-866 iv 10 mg/kg Q2D × 3): 11%
Alone log cell kill ([3]; PX-866 iv 10 mg/kg Q2D × 3): 0.3
Alone Growth delay days ([3]; PX-866 po 2.5 mg/kg Q2D × 3): 1 days
Alone TGI % ([3]; PX-866 po 2.5 mg/kg Q2D × 3): 29%
Alone log cell kill ([3]; PX-866 po 2.5 mg/kg Q2D × 3): 0.1
erythroid lineage CFU-GEMM, BFU-E or CFU-E [4]: no significant change
myeloid CFU-GM ([4]; ±S.E., n=4): 168±59 colonies per 60,000 bone marrow cells plated
nonfasting glucose levels [5]: 269.4 ± 27.8 mg/dL
plasma glucose AUC0-180 min ([6]; PX-866 3 mg/kg po QOD × 20, glucose 24 hours after the last dose): 520 ± 14^a mg · min · ml^−1
plasma glucose AUC0-180 min ([6]; PX-866 10 mg/kg po single dose, glucose 4 hours later, no other drug): 533 ± 17^a mg · min · ml^−1
antitumor effect with gefitinib [7]: increased the antitumor effect of gefitinib
IC50 [8]: 5.5 nM
Growth Delay [9, 20]: 6 days
Log10 cell kill [9, 20]: 0.9
T/C % (optimal test/control) ([9]; initial tumor vol 60 mm^3, 4 mg/kg/day po Q1D × 9, day 21): 47 (21) %
Growth Delay [9, 21]: 5 days
Log10 cell kill [9, 21]: 0.7
T/C % (optimal test/control) ([9]; initial tumor vol 60 mm^3, 12 mg/kg/day iv Q1D × 9, day 21): 45 (21) %
Growth Delay [9, 22]: 4 days
Log10 cell kill [9, 22]: 0.2
T/C % (optimal test/control) ([9]; initial tumor vol 65 mm^3, 6 mg/kg/day ip Q1D × 9, day 32): 62 (32) %
Growth Delay [9, 23]: 8 days
Log10 cell kill [9, 23]: 0.4
T/C % (optimal test/control) ([9]; initial tumor vol 65 mm^3, 9 mg/kg/day ip Q1D × 9, day 32): 26 (32) %
half-life [10]: ~16 h
Combined Growth delay days [11, 24]: 20 days
Combined TGI % [11, 24]: 83%
Combined log cell kill [11, 24]: 1.5
Combined Growth delay days [11, 25]: 34 days
Combined TGI % [11, 25]: 87%
Combined log cell kill [11, 25]: 2.6
Alone Growth delay days ([11]; PX-866 iv 12 mg/kg Q2D × 5): 12 days
Alone TGI % ([11]; PX-866 iv 12 mg/kg Q2D × 5): 58%
Alone log cell kill ([11]; PX-866 iv 12 mg/kg Q2D × 5): 0.9
Alone Growth delay days ([11]; PX-866 po 4 mg/kg Q2D × 5): 11 days
Alone TGI % ([11]; PX-866 po 4 mg/kg Q2D × 5): 53%
Alone log cell kill ([11]; PX-866 po 4 mg/kg Q2D × 5): 0.82
inhibition at 12 mg/kg ([12]; Mus musculus, A549, iv, 120 h, read-out: inhibition of tumor phospho-Akt): 51%
inhibition at 3 mg/kg ([12]; Mus musculus, A549, po, 120 h, read-out: inhibition of tumor phospho-Akt): 48%
effect upon tumor phospho-Akt ([12]; combination of gefitinib and PX-866): inhibited both
